Measurements published in patent publication US20080274112A1, “Nogo Receptor Antagonists” (priority 2003, published 2008).
Values belong to the molecule of their own block, whether it stands above or below them.

Experiments:
[1] = molecular target: T1, MAG + sNogoR344-Fc (Rattus norvegicus, UniProt Q99M75, A303T/C287S/C43R/E284G/T53A); test: mAb/Fab inhibition of MAG binding to sNogoR344-Fc (ELISA)
T1 construct: amino acid residues 26-344 of rat Nogo receptor-1; made in house
T1 sequence (Q99M75 26-344 C43R/T53A/E284G/C287S/A303T): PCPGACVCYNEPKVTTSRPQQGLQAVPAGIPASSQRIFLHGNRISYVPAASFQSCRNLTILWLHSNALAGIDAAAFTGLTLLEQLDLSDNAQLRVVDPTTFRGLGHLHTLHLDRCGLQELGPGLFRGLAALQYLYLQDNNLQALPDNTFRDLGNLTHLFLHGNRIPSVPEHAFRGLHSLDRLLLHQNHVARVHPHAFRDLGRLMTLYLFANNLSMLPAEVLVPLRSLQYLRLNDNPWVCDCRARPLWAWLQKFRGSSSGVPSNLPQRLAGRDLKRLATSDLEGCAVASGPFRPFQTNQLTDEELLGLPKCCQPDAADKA
Description: (§1) 0.5 μg of a soluble Nogo receptor-1 fusion protein comprising amino acid residues 26-344 of rat Nogo receptor-1 and the hinge and Fc region of the rat IgG1 molecule (sNogoR344-Fc) produced as described below was immobilized on 250 μg of protein-A- or wheatgerm agglutinin-conjugated SPA beads (Amersham Pharmacia Biotech) for 2 hours at 25° C. SPA beads coupled with Fc-sNogoR-1, anti-Nogo receptor-1 mAb and 1 μl ^125I-Nogo66 (Amersham, 2000 Ci/mmol, 1 nM) in 50 μl of the HEPES-buffered incubation medium (10 mM HEPES, pH 7.4, 0.1% bovine serum albumin, 0.1% ovalbumin, 2 mM MgCl2, 2 mM CaCl2 and protease inhibitors) was added to each sample well. After 16 hours, radioactivity was measured in quadruplicate samples using a TopCount® (Packard). IC50 values were calculated from a curve-fit analysis (FIG. 3) (PRISM, GraphPad Software, NJ). In some experiments, we also used AP-ligand conjugates (e.g. AP-Nogo66) and detected binding by monitoring alkaline phosphatase activity. We also assayed the ability of the mAbs to block binding of the ligands MAG-Fc and AP-OM-gp to Nogo receptor-1.
(§2) The calculated IC50 for Nogo66 for 7E11 and 1H2 were 400 nM and 60 nM, respectively. The data from ELISAs monitoring mAb-mediated inhibition of binding of the three ligands to Nogo receptor-1 are summarized in Table 6.
(§3) We also performed ELISA binding assays using the Fab-phage 14D5.

[2] = molecular target: T2, Nogo66 + sNogoR344-Fc (Rattus norvegicus, UniProt Q99M75, A303T/C287S/C43R/E284G/T53A); test: mAb/Fab inhibition of Nogo66 binding to sNogoR344-Fc (ELISA)
T2 construct: amino acid residues 26-344 of rat Nogo receptor-1; made in house
T2 sequence (Q99M75 26-344 C43R/T53A/E284G/C287S/A303T): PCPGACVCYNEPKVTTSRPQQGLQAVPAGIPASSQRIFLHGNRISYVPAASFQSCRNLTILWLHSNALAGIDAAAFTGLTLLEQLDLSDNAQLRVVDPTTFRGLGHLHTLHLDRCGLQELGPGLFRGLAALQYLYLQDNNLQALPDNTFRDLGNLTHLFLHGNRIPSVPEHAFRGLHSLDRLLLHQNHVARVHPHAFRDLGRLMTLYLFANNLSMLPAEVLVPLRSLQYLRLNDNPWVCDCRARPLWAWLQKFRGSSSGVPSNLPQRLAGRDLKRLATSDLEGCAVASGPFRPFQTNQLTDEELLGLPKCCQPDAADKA
Description: as §1, §2, §3

[3] = molecular target: T3, OM-gp + sNogoR344-Fc (Rattus norvegicus, UniProt Q99M75, A303T/C287S/C43R/E284G/T53A); test: mAb/Fab inhibition of OM-gp binding to sNogoR344-Fc (ELISA)
T3 construct: amino acid residues 26-344 of rat Nogo receptor-1; made in house
T3 sequence (Q99M75 26-344 C43R/T53A/E284G/C287S/A303T): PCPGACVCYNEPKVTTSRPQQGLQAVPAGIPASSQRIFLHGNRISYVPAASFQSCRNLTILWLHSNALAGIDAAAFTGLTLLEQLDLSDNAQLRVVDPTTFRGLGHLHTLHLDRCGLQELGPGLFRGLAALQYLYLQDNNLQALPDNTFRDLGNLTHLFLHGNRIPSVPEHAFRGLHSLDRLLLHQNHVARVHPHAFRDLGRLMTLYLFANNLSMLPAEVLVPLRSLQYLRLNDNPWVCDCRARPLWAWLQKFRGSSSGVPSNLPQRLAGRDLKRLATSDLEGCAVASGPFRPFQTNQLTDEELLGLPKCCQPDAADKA
Description: as §1, §2, §3

[4] = molecular target: polypeptide p-617 (SEQ ID NO: 1) (Rattus norvegicus, UniProt Q99M75); test: Specificity ELISA on polypeptide p-617; type: binding
From the text: To determine the specificity of the monoclonal and Fab-phage antibodies produced in Examples 1 and 2, we performed an ELISA using a panel of Nogo receptor-1 polypeptides. The panel consisted of sNogoR310-Fc (a fusion protein comprising amino acids 26-310 of rat Nogo receptor-1 and a rat Fc fragment), sNogoR344-Fc (see supra), polypeptide p-617 (SEQ ID NO: 1), polypeptide p-618 (a 19-amino acid polypeptide from the LRR7 region of rat Nogo receptor-1; FIG. 2; SEQ ID NO: 11) and polypeptides p-4 and p-5 (polypeptides from the LRR5 and LRRCT regions of Nogo receptor-1, respectively). Ovalbumin and BSA were used as controls.

[5] = tested on: DRG neurons; test: Neurite outgrowth assay, myelin mixed with test protein (Example 10); type: cell-based; settings: P3-4 rat DRG; spotted mixed with CNS myelin
Description: Lab-Tek® culture slides (4 wells) were coated with 0.1 mg/ml poly-D-lysine (Sigma®). CNS myelin alone or mixed with sNogoR310, sNogoR310-Fc fusion protein, mAb 5B10 or control PBS were separately spotted as 3 μl drops. Fluorescent microspheres (Polysciences) were added to the myelin/PBS to allow later identification of the drops (Grandpre et al, Nature 403, 2000). Lab-Tek® slides were then rinsed and coated with 10 μg/ml laminin (Gibco™).
Dorsal root ganglions (DRG's) from P3-4 Sprague Dawley rat pups were dissociated with 1 mg/ml collagenase type 1 (Worthington), triturated with fire-polished Pasteur pipettes pre-plated to enrich in neuronal cells and finally plated at 23,000 cells/well on the pre-coated Labtek culture slides. The culture medium was F12 containing 5% heat inactivated donor horse serum, 5% heat inactivated fetal bovine serum and 50 ng/ml MNGF and incubated at 37° C. and 5% CO2 for 6 hours.
Slides were fixed for 20 minutes with 4% paraformaldehyde containing 20% sucrose and stained for the neuronal marker anti beta-III-tubulin (Covance TUJ1) diluted 1:500. As secondary antibody anti-mouse Alexa Fluor® 594 (Molecular Probes) was diluted 1:300 and slides were coverslipped with Gel/Mount™ (Biømeda™). 5× digital images were acquired with OpenLab™ software and analyzed by using the MetaMorph® software for quantification of neurite outgrowth.

[6] = tested on: 7E11; test: 7E11 binding to digest peptides of NgR1 (MS analysis); parameters: species or system murine; settings: trypsin or Asp-N digest peptides
Description: The 7E11 binding site was further analyzed by testing trypsic peptide digests of sNgR310. […] 7E11 bound only a single tryptic digest peptide, providing additional evidence that […] binds to a single epitope on NgR1. Subsequent mass spectroscopy (MS) and sequence analyses identified the bound peptide to be […] (SEQ ID NO: 26).
The LDLSDNAQLRVVDPTT peptide (SEQ ID NO: 1) was subjected to further mapping analysis. The peptide was digested with trypsin, which yielded two major fragments, LDLSDNAQLR (SEQ ID NO: 27) and VVDPTT (SEQ ID NO: 28), and the ability of 7E11 to bind them was tested. […] Within this peptide fraction, detailed MS analysis identified several scrambled peptides that also bound 7E11, including peptides with deamination at Asn115 and Gln117, addition of Alanine at 112 or 113, or addition of Serine at 114 (Table 3).
The LDLSDNAQLRVVDPTT peptide was also digested with the endoprotease Asp-N and 7E11 binding was tested. Endoprotease Asp-N cleaved the peptide into 3 peptide fragments, L, DLS and DNAQLRVVDPTT (SEQ ID NO: 36). Of these products, 7E11 bound the DNAQLRVVDPTT peptide. Taken together, the trypsin and Asp-N cleavage data further localize the 7E11 binding epitope to the sequence shared between them, DNAQLR (SEQ ID NO: 37).

[7] = tested on: 7E11; test: 7E11 binding to immobilized point-mutant peptides (EC50); parameters: species or system murine
Description: To verify these contact points, several peptides containing point mutations within the LDLSDNAQLR sequence (SEQ ID NO: 27) were generated and tested for 7E11 binding. The peptides were immobilized on a MaxiSorp™ plate (Nunc®) and serial dilutions of […] were applied. […] The most significant change in EC50 was observed when Arg119 was mutated to Alanine.

[8] = tested on: Nogo receptor-1; test: Blocking of ligand binding to Nogo receptor-1 by soluble receptors

Molecule: 5B10: murine monoclonal anti-Nogo receptor-1 antibody, IgG1 kappa, ATCC PTA-4588; immunogen rat Nogo receptor-1 residues 110-125
- inhibition of binding of MAG to sNogoR344-Fc [1]: inhibited binding
- inhibition of binding of Nogo66 to sNogoR344-Fc [2]: inhibited binding
- inhibition of binding of OM-gp to sNogoR344-Fc [3]: inhibited binding
- binding to polypeptide p-617 [4]: specifically bound
- protection from myelin-mediated inhibition of neurite outgrowth [5]: protected

Molecule: DNAQLRVVDPTT
- binding by 7E11 [6]: bound

Molecule: LDLSDNAALRVVDPTT [Q117A]
- increase of EC50 versus original peptide [7]: 30 fold

Molecule: LDLSDNAQLR
- binding by 7E11 [6]: bound

Results, then the molecule that gave them:

- binding by 7E11 [6]: bound
Molecule: AAAFGLTLLEQLDLSDNAQLR (AAAFTGLTLLEQLDLSDNAQLR) [tryptic digest peptide of sNgR310]

- increase of EC50 versus original peptide [7]: 25 fold
Molecule: LDLSDNAQLHVVDPTT [R119H]

- blocking of binding of NogoA, NogoB, NogoC, MAG and OM-gp to Nogo receptor-1 [8]: block the binding
B1: sNogoR344: soluble Nogo receptor-1 polypeptide, residues 26-344 or 27-344 (protein, listed as Rattus sp.)
chain: PCPGACVCYNEPKVTTSRPQQGLQAVPAGIPASSQRIFLHGNRISYVPAASFQSCRNLTILWLHSNALAGIDAAAFTGLTLLEQLDLSDNAQLRVVDPTTFRGLGHLHTLHLDRCGLQELGPGLFRGLAALQYLYLQDNNLQALPDNTFRDLGNLTHLFLHGNRIPSVPEHAFRGLHSLDRLLLHQNHVARVHPHAFRDLGRLMTLYLFANNLSMLPAEVLVPLRSLQYLRLNDNPWVCDCRARPLWAWLQKFRGSSSGVPSNLPQRLAGRDLKRLATSDLEGCAVASGPFRPFQTNQLTDEELLGLPKCCQPDAADKA
